Data from patent US11969428B2, “Methods and pharmaceutical compositions for treating lymphoid malignancy” (priority 2011, dated 2024).

How the values were obtained:
Test in all cases: Ambit KinomeScan screening
Assay type in all cases: binding
Details in all cases: CAL-130 10 μM
ASK1 = target: T1, ASK1 (Homo sapiens, UniProt Q99683)
T1 construct: purchased Ambit (KinomeScan screening service)
How it was run: (§1)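 Each kinase, carrying a tag, was challenged to bind immobilized bait while CAL-130 was present (10 μM). Reported numbers are percent of the control signal, lower indicating tighter compound binding.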

TAK1 = target: T2, TAK1 (Homo sapiens, UniProt O43318)
T2 construct: tag (kind not specified); purchased Ambit (KinomeScan screening service)
How it was run: as §1

ALK = target: T3, ALK (Homo sapiens, UniProt Q9UM73)
T3 construct: purchased Ambit (KinomeScan screening)
How it was run: as §1

YANK3 = target: T4, YANK3 (Homo sapiens, UniProt Q86UX6)
T4 construct: purchased Ambit (KinomeScan screening service)
How it was run: as §1

CAMK2A = target: T5, CAMK2A (Homo sapiens, UniProt Q9UQM7)
T5 construct: unspecified tag ("tagged kinases"); purchased Ambit (KinomeScan screening)
How it was run: as §1

YSK1 = target: T6, YSK1 (Homo sapiens, UniProt O00506)
T6 construct: purchased Ambit (KinomeScan screening service)
How it was run: as §1

PRKR = target: T7, PRKR (Homo sapiens, UniProt P19525)
T7 construct: tag (kind not specified); purchased Ambit (KinomeScan screening service)
How it was run: as §1

LTK = target: T8, LTK (Homo sapiens, UniProt P29376)
T8 construct: unspecified tag ('tagged kinases'); purchased Ambit (KinomeScan screening service)
How it was run: as §1

HUNK = target: T9, HUNK (Homo sapiens, UniProt P57058)
T9 construct: Ambit (KinomeScan screening)
How it was run: as §1

ROCK2 = target: T10, ROCK2 (Homo sapiens, UniProt O75116)
T10 construct: unspecified tag (tagged kinase); purchased Ambit (KinomeScan screening)
How it was run: as §1

MAP3K15 = target: T11, MAP3K15 (Homo sapiens, UniProt Q6ZN16)
T11 construct: Ambit (KinomeScan screening)
How it was run: as §1

ROCK1 = target: T12, ROCK1 (Homo sapiens, UniProt Q13464)
T12 construct: unspecified tag (tagged kinase); purchased Ambit (KinomeScan screening)
How it was run: as §1

MAP3K2 = target: T13, MAP3K2 (Homo sapiens, UniProt Q9Y2U5)
T13 construct: Ambit (KinomeScan screening)
How it was run: as §1

ERK3 = target: T14, ERK3 (Homo sapiens, UniProt Q16659)
T14 construct: unspecified tag ("tagged kinases"); purchased Ambit (KinomeScan screening service)
How it was run: as §1

TNNI3K = target: T15, TNNI3K (Homo sapiens, UniProt Q59H18)
T15 construct: unspecified tag (tagged kinase); purchased Ambit (KinomeScan screening)
How it was run: as §1

GRK4 = target: T16, GRK4 (Homo sapiens, UniProt P32298)
T16 construct: unspecified tag ('tagged kinases'); purchased Ambit (KinomeScan screening service)
How it was run: as §1

EGFR(L747-T751DEL, SINS) = target: T17, EGFR(L747-T751DEL, SINS) (Homo sapiens, UniProt P00533, DEL747-750/T751S)
T17 construct: unspecified tag; purchased Ambit (KinomeScan screening service)
How it was run: as §1

PIK3CD = target: T18, PIK3CD (Homo sapiens, UniProt O00329)
T18 construct: unspecified tag; purchased Ambit (KinomeScan screening panel)
How it was run: as §1

BMPR1A = target: T19, BMPR1A (Homo sapiens, UniProt P36894)
T19 construct: purchased Ambit (KinomeScan screening service)
How it was run: as §1

EGFR = target: T20, EGFR (Homo sapiens, UniProt P00533)
T20 construct: unspecified tag; purchased Ambit (KinomeScan screening service)
How it was run: as §1

AAK1 = target: T21, AAK1 (Homo sapiens, UniProt Q2M2I8)
T21 construct: unspecified tag ("tagged kinases"); purchased Ambit (KinomeScan screening)
How it was run: as §1

PLK1 = target: T22, PLK1 (Homo sapiens, UniProt P53350)
T22 construct: purchased Ambit (KinomeScan screening service)
How it was run: as §1

GSK3A = target: T23, GSK3A (Homo sapiens, UniProt P49840)
T23 construct: unspecified tag ('tagged kinases'); purchased Ambit (KinomeScan screening service)
How it was run: as §1

NDR2 = target: T24, NDR2 (Homo sapiens, UniProt Q9Y2H1)
T24 construct: unspecified tag; purchased Ambit (KinomeScan screening panel)
How it was run: as §1

PCTK3 = target: T25, PCTK3 (Homo sapiens, UniProt Q07002)
T25 construct: unspecified tag ('tagged kinases'); purchased Ambit (KinomeScan screening)
How it was run: as §1

MEK6 = target: T26, MEK6 (Homo sapiens, UniProt P52564)
T26 construct: purchased Ambit (KinomeScan screening)
How it was run: as §1

CDK9 = target: T27, CDK9 (Homo sapiens, UniProt P50750)
T27 construct: purchased Ambit (KinomeScan screening service)
How it was run: as §1

STK39 = target: T28, STK39 (Homo sapiens, UniProt Q9UEW8)
T28 construct: tag (kind not specified); purchased Ambit (KinomeScan screening service)
How it was run: as §1

DDR1 = target: T29, DDR1 (Homo sapiens, UniProt Q08345)
T29 construct: unspecified tag ("tagged kinases"); purchased Ambit (KinomeScan screening service)
How it was run: as §1

ACVR1B = target: T30, ACVR1B (Homo sapiens, UniProt P36896)
T30 construct: unspecified tag ("tagged kinases"); purchased Ambit (KinomeScan screening)
How it was run: as §1

KIT(V559D) = target: T31, KIT(V559D) (Homo sapiens, UniProt P10721, V559D)
T31 construct: purchased Ambit (KinomeScan screening)
How it was run: as §1

MYLK = target: T32, MYLK (Homo sapiens, UniProt Q15746)
T32 construct: unspecified tag; purchased Ambit (KinomeScan screening panel)
How it was run: as §1

PKMYT1 = target: T33, PKMYT1 (Homo sapiens, UniProt Q99640)
T33 construct: purchased Ambit (KinomeScan screening service)
How it was run: as §1

NDR1 = target: T34, NDR1 (Homo sapiens, UniProt Q15208)
T34 construct: unspecified tag; purchased Ambit (KinomeScan screening panel)
How it was run: as §1

EPHA3 = target: T35, EPHA3 (Homo sapiens, UniProt P29320)
T35 construct: purchased Ambit (KinomeScan screening service)
How it was run: as §1

ULK1 = target: T36, ULK1 (Homo sapiens, UniProt O75385)
T36 construct: tag, kind not specified; purchased Ambit (KinomeScan screening service)
How it was run: as §1

T18 sequence (O00329 whole entry): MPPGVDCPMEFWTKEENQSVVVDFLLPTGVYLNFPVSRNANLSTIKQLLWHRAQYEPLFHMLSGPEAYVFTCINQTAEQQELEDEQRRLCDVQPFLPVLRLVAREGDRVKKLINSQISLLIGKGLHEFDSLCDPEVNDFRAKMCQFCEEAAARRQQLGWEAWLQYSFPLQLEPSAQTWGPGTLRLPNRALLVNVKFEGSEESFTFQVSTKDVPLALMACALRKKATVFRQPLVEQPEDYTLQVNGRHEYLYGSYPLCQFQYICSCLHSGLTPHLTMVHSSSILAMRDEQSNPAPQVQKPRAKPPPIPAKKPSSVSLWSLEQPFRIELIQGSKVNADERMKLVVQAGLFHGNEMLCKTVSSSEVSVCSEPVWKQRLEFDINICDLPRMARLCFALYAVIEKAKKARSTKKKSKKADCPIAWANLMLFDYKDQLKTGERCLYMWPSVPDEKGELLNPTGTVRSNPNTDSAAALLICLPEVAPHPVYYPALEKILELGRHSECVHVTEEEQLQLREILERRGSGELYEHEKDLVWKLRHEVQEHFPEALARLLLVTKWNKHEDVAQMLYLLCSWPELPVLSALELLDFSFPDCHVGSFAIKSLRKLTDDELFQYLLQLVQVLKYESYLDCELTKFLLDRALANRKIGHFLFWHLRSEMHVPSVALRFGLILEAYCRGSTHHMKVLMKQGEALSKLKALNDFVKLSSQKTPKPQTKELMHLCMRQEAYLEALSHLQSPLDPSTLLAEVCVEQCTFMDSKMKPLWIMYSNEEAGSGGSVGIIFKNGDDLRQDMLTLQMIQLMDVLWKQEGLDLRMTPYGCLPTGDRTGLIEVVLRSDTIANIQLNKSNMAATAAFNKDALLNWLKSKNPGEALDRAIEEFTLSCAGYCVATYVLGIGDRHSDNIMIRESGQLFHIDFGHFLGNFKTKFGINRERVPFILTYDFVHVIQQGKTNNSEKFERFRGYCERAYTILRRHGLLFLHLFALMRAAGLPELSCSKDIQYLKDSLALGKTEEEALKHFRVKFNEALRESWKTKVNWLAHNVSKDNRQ
T22 sequence (P53350 whole entry): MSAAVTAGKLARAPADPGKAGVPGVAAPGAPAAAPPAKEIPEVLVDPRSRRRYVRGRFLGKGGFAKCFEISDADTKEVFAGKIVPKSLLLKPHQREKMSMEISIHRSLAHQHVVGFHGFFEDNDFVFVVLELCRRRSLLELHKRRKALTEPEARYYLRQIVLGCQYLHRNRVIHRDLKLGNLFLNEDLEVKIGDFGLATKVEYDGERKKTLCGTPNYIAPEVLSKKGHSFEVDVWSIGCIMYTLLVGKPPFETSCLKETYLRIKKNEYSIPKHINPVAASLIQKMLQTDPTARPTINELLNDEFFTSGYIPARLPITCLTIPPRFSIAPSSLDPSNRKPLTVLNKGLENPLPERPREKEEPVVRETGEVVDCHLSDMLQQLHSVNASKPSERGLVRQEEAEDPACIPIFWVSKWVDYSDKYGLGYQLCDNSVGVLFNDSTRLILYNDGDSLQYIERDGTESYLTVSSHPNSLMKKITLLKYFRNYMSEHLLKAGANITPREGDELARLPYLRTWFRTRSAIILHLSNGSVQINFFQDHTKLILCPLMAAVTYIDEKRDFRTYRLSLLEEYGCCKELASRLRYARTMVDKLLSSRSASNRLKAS
T7 sequence (P19525 whole entry): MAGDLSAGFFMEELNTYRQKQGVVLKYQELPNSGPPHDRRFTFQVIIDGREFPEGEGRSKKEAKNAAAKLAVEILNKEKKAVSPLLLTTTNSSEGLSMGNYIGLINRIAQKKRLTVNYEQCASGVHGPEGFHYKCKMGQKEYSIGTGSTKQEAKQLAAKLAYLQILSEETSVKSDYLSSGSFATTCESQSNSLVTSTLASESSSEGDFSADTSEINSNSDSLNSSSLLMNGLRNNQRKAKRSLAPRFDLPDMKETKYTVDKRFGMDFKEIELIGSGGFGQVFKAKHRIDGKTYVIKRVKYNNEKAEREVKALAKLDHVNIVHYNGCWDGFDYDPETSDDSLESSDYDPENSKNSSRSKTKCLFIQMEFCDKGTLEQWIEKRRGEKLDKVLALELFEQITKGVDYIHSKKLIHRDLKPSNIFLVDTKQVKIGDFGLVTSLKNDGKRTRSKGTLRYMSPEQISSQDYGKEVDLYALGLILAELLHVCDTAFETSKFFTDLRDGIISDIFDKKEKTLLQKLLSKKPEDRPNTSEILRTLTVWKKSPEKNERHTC
T3 sequence (Q9UM73 19-1620): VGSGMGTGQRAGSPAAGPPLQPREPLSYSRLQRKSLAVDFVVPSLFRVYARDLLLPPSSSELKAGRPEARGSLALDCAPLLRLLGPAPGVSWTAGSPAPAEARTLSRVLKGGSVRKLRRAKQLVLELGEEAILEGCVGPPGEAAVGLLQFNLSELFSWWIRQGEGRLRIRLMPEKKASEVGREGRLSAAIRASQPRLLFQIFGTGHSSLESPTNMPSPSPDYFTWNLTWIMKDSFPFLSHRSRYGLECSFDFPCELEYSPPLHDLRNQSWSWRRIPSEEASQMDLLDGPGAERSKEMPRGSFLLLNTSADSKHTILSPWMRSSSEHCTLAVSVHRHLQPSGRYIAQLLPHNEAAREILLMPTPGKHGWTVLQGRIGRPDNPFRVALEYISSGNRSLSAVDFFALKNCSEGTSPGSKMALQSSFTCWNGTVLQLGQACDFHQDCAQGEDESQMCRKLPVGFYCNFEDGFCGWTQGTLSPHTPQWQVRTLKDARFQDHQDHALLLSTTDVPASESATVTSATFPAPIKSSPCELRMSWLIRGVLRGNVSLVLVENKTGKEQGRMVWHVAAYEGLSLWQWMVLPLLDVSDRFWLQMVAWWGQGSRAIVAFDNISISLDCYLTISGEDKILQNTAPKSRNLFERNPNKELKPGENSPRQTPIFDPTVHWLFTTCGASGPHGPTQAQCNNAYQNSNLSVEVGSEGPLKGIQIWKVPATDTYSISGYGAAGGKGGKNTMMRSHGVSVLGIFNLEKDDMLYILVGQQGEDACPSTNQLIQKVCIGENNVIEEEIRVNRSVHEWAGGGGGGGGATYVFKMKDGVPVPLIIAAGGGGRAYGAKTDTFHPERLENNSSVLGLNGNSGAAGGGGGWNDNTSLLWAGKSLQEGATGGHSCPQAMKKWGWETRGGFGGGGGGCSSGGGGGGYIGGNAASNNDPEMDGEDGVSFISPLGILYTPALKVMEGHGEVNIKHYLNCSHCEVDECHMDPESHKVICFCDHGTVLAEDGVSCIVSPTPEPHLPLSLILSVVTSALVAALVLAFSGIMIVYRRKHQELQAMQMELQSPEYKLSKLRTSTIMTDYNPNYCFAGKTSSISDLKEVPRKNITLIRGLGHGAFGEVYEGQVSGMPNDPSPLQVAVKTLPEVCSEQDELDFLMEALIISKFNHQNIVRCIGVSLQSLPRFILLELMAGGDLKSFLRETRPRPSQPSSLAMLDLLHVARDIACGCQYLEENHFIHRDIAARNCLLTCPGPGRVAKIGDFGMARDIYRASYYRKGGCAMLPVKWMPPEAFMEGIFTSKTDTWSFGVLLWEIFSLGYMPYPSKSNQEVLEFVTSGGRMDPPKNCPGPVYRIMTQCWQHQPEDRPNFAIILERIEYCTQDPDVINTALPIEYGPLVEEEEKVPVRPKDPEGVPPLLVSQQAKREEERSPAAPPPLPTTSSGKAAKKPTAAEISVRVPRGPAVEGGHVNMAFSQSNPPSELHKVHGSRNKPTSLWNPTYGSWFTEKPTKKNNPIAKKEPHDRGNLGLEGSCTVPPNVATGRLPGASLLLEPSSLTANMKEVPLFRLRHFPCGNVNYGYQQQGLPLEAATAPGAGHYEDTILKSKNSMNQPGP
T24 sequence (Q9Y2H1 whole entry): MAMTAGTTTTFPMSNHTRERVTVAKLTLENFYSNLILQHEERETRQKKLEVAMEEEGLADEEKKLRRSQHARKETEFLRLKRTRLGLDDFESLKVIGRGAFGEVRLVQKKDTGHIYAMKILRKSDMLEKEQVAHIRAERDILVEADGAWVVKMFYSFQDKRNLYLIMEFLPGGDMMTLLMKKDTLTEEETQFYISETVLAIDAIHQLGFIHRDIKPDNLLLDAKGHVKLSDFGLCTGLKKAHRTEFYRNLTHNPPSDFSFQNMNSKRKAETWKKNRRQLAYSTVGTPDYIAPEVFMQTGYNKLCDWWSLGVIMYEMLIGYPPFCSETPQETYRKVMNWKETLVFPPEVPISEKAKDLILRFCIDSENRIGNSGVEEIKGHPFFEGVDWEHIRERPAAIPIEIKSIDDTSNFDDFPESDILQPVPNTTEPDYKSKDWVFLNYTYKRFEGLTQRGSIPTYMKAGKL
T2 sequence (O43318 whole entry): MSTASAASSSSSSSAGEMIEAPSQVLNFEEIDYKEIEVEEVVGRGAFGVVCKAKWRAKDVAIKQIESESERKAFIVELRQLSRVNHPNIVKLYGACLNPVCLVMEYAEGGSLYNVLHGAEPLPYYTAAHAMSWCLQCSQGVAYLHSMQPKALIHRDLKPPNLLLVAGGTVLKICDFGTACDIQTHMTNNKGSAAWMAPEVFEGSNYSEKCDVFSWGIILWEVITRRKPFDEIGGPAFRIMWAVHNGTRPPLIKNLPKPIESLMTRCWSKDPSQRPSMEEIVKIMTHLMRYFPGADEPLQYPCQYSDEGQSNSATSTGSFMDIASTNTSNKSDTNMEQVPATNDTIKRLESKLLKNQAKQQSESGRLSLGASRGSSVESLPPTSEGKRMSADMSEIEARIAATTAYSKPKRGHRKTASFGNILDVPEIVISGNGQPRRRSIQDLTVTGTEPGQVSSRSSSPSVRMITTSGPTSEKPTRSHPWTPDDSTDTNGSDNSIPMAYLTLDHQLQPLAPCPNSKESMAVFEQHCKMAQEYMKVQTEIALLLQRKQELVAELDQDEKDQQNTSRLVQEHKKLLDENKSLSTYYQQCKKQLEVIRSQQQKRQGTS

SMILES: Cc1ccccc1-n1c(C(C)Nc2nc(N)nc3nc[nH]c23)nc2cccc(C)c2c1=O (stereo not shown) [CAL-130]
- Percent of Control Binding (ASK1): 100%
- Percent of Control Binding (TAK1): 100%
- Percent of Control Binding (ALK): 100%
- Percent of Control Binding (YANK3): 100%
- Percent of Control Binding (CAMK2A): 100%
- Percent of Control Binding (YSK1): 100%
- Percent of Control Binding (PRKR): 100%
- Percent of Control Binding (LTK): 100%
- Percent of Control Binding (HUNK): 100%
- Percent of Control Binding (ROCK2): 100%
- Percent of Control Binding (MAP3K15): 100%
- Percent of Control Binding (ROCK1): 100%
- Percent of Control Binding (MAP3K2): 100%
- Percent of Control Binding (ERK3): 100%
- Percent of Control Binding (TNNI3K): 100%
- Percent of Control Binding (GRK4): 100%
- Percent of Control Binding (EGFR(L747-T751DEL, SINS)): 100%
- Percent of Control Binding (PIK3CD; PI3KCD (Table 2)): 0.1%
- Percent of Control Binding (PIK3CD; PIK3CD / PI3Kδ (Table 1)): 0.2%
- Percent of Control Binding (BMPR1A): 100%
- Percent of Control Binding (EGFR): 100%
- Percent of Control Binding (AAK1): 100%
- Percent of Control Binding (PLK1): 100%
- Percent of Control Binding (GSK3A): 100%
- Percent of Control Binding (NDR2): 100%
- Percent of Control Binding (PCTK3): 100%
- Percent of Control Binding (MEK6): 100%
- Percent of Control Binding (CDK9): 100%
- Percent of Control Binding (STK39): 100%
- Percent of Control Binding (DDR1): 100%
- Percent of Control Binding (ACVR1B): 100%
- Percent of Control Binding (KIT(V559D)): 100%
- Percent of Control Binding (MYLK): 100%
- Percent of Control Binding (PKMYT1): 100%
- Percent of Control Binding (NDR1): 100%
- Percent of Control Binding (EPHA3): 100%
- Percent of Control Binding (ULK1): 100%
